Usually Kd stands for the free concentration of one partner at which half of the binding sites on the other are occupied at equilibrium, for simple one-to-one binding.

Molecules are shown by their SMILES. Like-named read-outs stand apart in the source and are kept apart here.

From US6887202B2, “Systems and methods for monitoring health and delivering drugs transdermally” (Science Applications International Corporation, priority 2000, dated 2005) come the findings set out here.

Test [1] addresses T1, α3/β4 nAChR (Rattus norvegicus, UniProt P04757+P12392).
T1 construct: expressed in transfected cells
In words: Frontal chromatography with α3/β4 nAChR-IAM stationary phase ([3H]-EB marker). It counts as binding. As to the method:
Rat whole forebrain or transfected cells are suspended in 50 mM Tris-HCI, pH 7.4, (buffer A), homogenized for 30 seconds with Brinkmann Polytron, and centrifuged at 40,000×g for 10 min at 4° C. The pellet is resuspended in 6 ml of 2% deoxycholate or 2% cholate in buffer A and stirred for 2 hours. The mixture is centrifuged at 35,000×g for 30 minutes, and the supernatant containing nAChR-deoxycholate solution is collected.
Dried IAM particles are suspended in 4 ml of the obtained detergent solutions containing nAChR subunits or subtypes. For the immobilization of one nAChR subtype, the mixture of IAM-detergent-receptor is stirred for 1 hour at room temperature. The suspension is dialyzed against 2×1 L buffer A for 24 hours at 4° C. The IAM LC support with immobilized nAChRs is then washed with buffer A, centrifuged and the solid collected.
Chromatography based on nAChR-LAMcolumn or nAChR-liposome-Superdex 200 column: The nAChR-IAM particles or nAChR-Superdex gel beads are packed in a HR5/2 glass column and connected to a HPLC pump. […] All chromatographic experiments are performed at flow rate 0.4 ml/min at room temperature.
The chromatographic data is summed up in 1-min intervals and smoothed using the Microsoft Excel program with a 10 point moving average.

For test [2], the target named is T1, α3/β4 nAChR. In words: Ligand binding assay using cell membrane homogenates.
Test [3] has as its target GABAA receptor. In words: Frontal chromatography on immobilized GABAA receptor (GR-IAM), [3H]-flunitrazepam marker. It counts as binding, rat. The method, then:
Supernatant is discarded.
All chromatographic experiments are performed at flow rate 0.4 ml/min at room temperature. […] The chromatographic data is summed up in 1-min intervals and smoothed using the Microsoft Excel program with a 10 point moving average.

Test [4] concerns the target GABAA receptor. The conditions noted are these: read-out: Kd, Binding Assays; classical binding assays.
[5] abbreviates: a3/(34-IAM stationary phase (0.5 × 1.3 cm)), read-out: Kd (frontal chromatography).

T1 sequence (P04757 26-499): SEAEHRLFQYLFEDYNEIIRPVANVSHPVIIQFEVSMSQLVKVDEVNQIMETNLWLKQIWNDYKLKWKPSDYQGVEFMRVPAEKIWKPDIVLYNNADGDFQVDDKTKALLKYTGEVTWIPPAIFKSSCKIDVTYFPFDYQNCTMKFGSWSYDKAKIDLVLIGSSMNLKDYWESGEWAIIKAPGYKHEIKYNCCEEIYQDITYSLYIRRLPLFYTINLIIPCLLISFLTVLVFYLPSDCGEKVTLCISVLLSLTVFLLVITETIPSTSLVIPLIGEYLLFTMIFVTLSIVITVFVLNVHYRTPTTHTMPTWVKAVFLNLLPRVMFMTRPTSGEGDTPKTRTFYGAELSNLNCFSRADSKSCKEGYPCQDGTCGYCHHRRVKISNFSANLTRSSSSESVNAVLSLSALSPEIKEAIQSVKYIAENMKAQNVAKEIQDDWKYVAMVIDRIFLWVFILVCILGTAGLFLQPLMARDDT
T1 sequence (P12392 21-495): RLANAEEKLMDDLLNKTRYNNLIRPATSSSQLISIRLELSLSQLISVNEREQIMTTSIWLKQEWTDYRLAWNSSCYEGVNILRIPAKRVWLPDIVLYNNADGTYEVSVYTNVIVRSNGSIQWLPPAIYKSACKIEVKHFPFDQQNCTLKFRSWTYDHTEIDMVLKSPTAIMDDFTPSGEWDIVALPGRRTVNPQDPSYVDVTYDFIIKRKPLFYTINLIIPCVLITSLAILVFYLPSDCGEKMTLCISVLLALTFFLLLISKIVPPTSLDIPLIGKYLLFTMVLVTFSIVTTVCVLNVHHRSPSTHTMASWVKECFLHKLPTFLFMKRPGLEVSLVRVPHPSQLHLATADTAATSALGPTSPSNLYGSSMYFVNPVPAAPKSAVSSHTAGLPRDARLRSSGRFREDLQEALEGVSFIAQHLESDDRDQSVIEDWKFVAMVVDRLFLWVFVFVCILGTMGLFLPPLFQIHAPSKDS

For `CN1CCCC1c1cccnc1` (single isomer, unassigned; (-)) [(−)-Nicotine], on α3/β4 nAChR [1], the “mobile phase concentration required to decrease the retention volume of 60 pM [3H]-EB from 9.5 ml to 6 ml” value came out at 45 nM.
Turning to `c1cncc(OC[C@@H]2CCN2)c1` [A85380], the values for the dissociation constant (Kd) at α3/β4 nAChR [1] (setting [5]) and at α3/β4 nAChR [2] were 17.2 ± 0.5 nM and 73.6 ± 6.3 nM, respectively. Further, the “mobile phase concentration required to decrease the retention volume of 60 pM [3H]-EB from 9.5 ml to 6 ml” value on α3/β4 nAChR [1] (α3/β4 nAChR column (0.5×1.25 cm)) amounted to 1.7 nM.
`CN1[C@@H]2CC[C@H]1C[C@@H](OC(=O)C(CO)c1ccccc1)C2` (stereo partly shown) [Atropine] yielded a Kd on α3/β4 nAChR [1] of 14600 nM.
Regarding `C[N+](C)(C)CCOC(N)=O` [Carbachol], the “mobile phase concentration required to decrease the retention volume of 60 pM [3H]-EB from 9.5 ml to 6 ml” value on α3/β4 nAChR [1] is 1,200 nM. Also, the Kd is 1280 nM on α3/β4 nAChR [1] (setting [5]) and 3840 nM at α3/β4 nAChR [2].
In the case of `CN1C(=O)CN=C(c2ccccc2)c2cc(Cl)ccc21` [Diazepam], the Kd at GABAA receptor [3] worked out at 1 nM; at GABAA receptor [4] it was 1.3 nM.
